Measured values taken from patent US20050004211A1, “Pharmaceutical compositions comprising aryl-substituted acyclic enediyne compounds” (KAOHSIUNG MEDICAL UNIVERSITY, priority 2003, published 2005).
Marks after values point to notes of the source that are not given here.

What was measured:
Breast Cancer cell lines = experiment: NCI full panel screen, panel average; conditions: Homo sapiens, read-out: cytotoxicity, average of all Breast Cancer cell lines
NCI-H23 = conditions: read-out: GI50 NCI-H23; Table 4
IGROV1 = conditions: Table 4; for GI50: read-out: GI50 IGROV1; for CC50: read-out: LC50 IGROV1
Melanoma cell lines = experiment: NCI full panel screen, panel average; conditions: Homo sapiens, read-out: cytotoxicity, average of all Melanoma cell lines
K-562 = conditions: Table 4; for CC50: read-out: LC50 K-562; for GI50: read-out: GI50 K-562
Renal Cancer cell lines = experiment: NCI full panel screen, panel average; conditions: Homo sapiens, read-out: cytotoxicity, average of all Renal Cancer cell lines
[1] = tested on: Non-Small Cell Lung Cancer cell lines; experiment: NCI full panel screen, panel average; conditions: Homo sapiens, read-out: cytotoxicity, average of all Non-Small Cell Lung Cancer cell lines
NCI/ADR-RES = conditions: Table 4; for GI50: read-out: GI50 NCI/ADR-RES; for CC50: read-out: LC50 NCI/ADR-RES
Breast cancer cell MCF-7 = experiment: Preliminary cytotoxicity test; type: cell-based, human
SW-620 = conditions: Table 4; for GI50: read-out: GI50 SW-620; for CC50: read-out: LC50 SW-620
PC-3 = conditions: read-out: GI50 PC-3; Table 4
CNS cancer cell SF-268 = experiment: Preliminary cytotoxicity test; type: cell-based, human
OVCAR-3 = experiment: NCI full panel screen; conditions: Homo sapiens; for GI50: OVCAR-3, read-out: GI50 OVCAR-3; for CC50: OVCAR-3, read-out: LC50 OVCAR-3
DU-145 = experiment: NCI full panel screen; conditions: Table 4; for CC50: read-out: LC50 DU-145; for GI50: read-out: GI50 DU-145
[2] = tested on: Prostate Cancer cell lines; experiment: NCI full panel screen, panel average; conditions: Homo sapiens, read-out: cytotoxicity, average of all Prostate Cancer cell lines
SK-MEL-5 = conditions: Table 4; for GI50: read-out: GI50 SK-MEL-5; for CC50: read-out: LC50 SK-MEL-5
U251 = conditions: Table 4; for CC50: read-out: LC50 U251; for GI50: read-out: GI50 U251
SF-295 = conditions: Table 4; for GI50: read-out: GI50 SF-295; for CC50: read-out: LC50 SF-295
NCI-H522 = conditions: Table 4; for CC50: read-out: LC50 NCI-H522; for GI50: read-out: GI50 NCI-H522
KM12 = conditions: Table 4; for CC50: read-out: LC50 KM12
Colon Cancer cell lines = experiment: NCI full panel screen, panel average; conditions: Homo sapiens, read-out: cytotoxicity, average of all Colon Cancer cell lines
Leukemia cell lines = experiment: NCI full panel screen, panel average; conditions: Homo sapiens, read-out: cytotoxicity, average of all Leukemia cell lines
[3] = tested on: Non-small cell Lung cancer cell NCI-H460; experiment: Preliminary cytotoxicity test; type: cell-based, human
[4] = tested on: Ovarian Cancer cell lines; experiment: NCI full panel screen, panel average; conditions: Homo sapiens, read-out: cytotoxicity, average of all Ovarian Cancer cell lines
CNS Cancer cell lines = experiment: NCI full panel screen, panel average; conditions: Homo sapiens, read-out: cytotoxicity, average of all CNS Cancer cell lines
CAKI-1 = conditions: Table 4; for GI50: read-out: GI50 CAKI-1; for CC50: read-out: LC50 CAKI-1
SR = experiment: NCI full panel screen; conditions: Table 4; for CC50: read-out: LC50 SR; for GI50: read-out: GI50 SR
SN12C = conditions: read-out: GI50 SN12C; Table 4
UACC-82 = conditions: read-out: GI50 UACC-82; Table 4
MDA-MB-435 = conditions: read-out: GI50 MDA-MB-435; Table 4

In the case of `N#Cc1ccccc1C#CC=CC#Cc1ccccn1` [Compound 27, 2-(6-(2-pyridinyl)-3-hexen-1,5-diynyl)benzonitrile], the IC50 (Breast Cancer cell lines) is reported as 14.3 µM, the GI50 (NCI-H23) is reported as 12.3 µM and the GI50 (IGROV1) is reported as 17 µM. For the same molecule, the CC50 (IGROV1) was 79.1 µM, the IC50 (Melanoma cell lines) was 14.2 µM and the CC50 (K-562) was over 100 µM. It also gave an IC50 (Renal Cancer cell lines) of 21.7 µM, an IC50 [1] of 19.6 µM and a GI50 (NCI/ADR-RES) of 16.5 µM. For the same molecule, the CC50 (NCI/ADR-RES) was 71 µM, the “Growth percentage, Breast cancer cell MCF-7” value (Breast cancer cell MCF-7) was 49% and the GI50 (SW-620) was 12.6 µM. The CC50 (SW-620) was 80.5 µM, the GI50 (PC-3) was 13.7 µM and the “Growth percentage, CNS cancer cell SF-268” value (CNS cancer cell SF-268) was 83%. For the same molecule, the GI50 (OVCAR-3) was 4.26 µM, the CC50 (OVCAR-3) was 56.9 µM and the CC50 (DU-145) was over 100 µM. It also gave an IC50 [2] of 21.2 µM, a GI50 (SK-MEL-5) of 2.99 µM and a CC50 (SK-MEL-5) of 41.6 µM. The CC50 (U251) was 79 µM, the GI50 (SF-295) was 20.1 µM and the CC50 (SF-295) was over 100 µM. It also gave a CC50 (NCI-H522) of 84.7 µM, a CC50 (KM12) of 80.4 µM and an IC50 (Colon Cancer cell lines) of 16.3 µM. The IC50 (Leukemia cell lines) was 12.8 µM, the “Growth percentage, Non-small cell Lung cancer cell NCI-H460” value [3] was 23* % and the IC50 [4] was 27.3 µM. For the same molecule, the IC50 (CNS Cancer cell lines) was 20.9 µM, the GI50 (CAKI-1) was 21.8 µM and the CC50 (CAKI-1) was over 100 µM. The CC50 (SR) was over 100 µM, the GI50 (SN12C) was 20.4 µM and the GI50 (UACC-82) was 15.3 µM.
`N#Cc1ccccc1C#CC=CC#Cc1cnccn1` [Compound 30, 2-(6-(2-pyrazinyl)-3-hexen-1,5-diynyl)benzonitrile] showed an IC50 (Breast Cancer cell lines) of 33.3 µM, a GI50 (NCI-H23) of 15.9 µM and a GI50 (IGROV1) of 46.2 µM. The CC50 (IGROV1) was over 100 µM, the IC50 (Melanoma cell lines) was 18.7 µM and the GI50 (K-562) was 4.88 µM. For the same molecule, the CC50 (K-562) was over 100 µM, the IC50 (Renal Cancer cell lines) was 27 µM and the IC50 [1] was 11.8 µM. The GI50 (NCI/ADR-RES) was 15.9 µM, the CC50 (NCI/ADR-RES) was over 100 µM and the “Growth percentage, Breast cancer cell MCF-7” value (Breast cancer cell MCF-7) was 73%. It also gave a GI50 (SW-620) of 6.98 µM, a CC50 (SW-620) of over 100 µM and a GI50 (PC-3) of 30.9 µM. The “Growth percentage, CNS cancer cell SF-268” value (CNS cancer cell SF-268) was 84%, the GI50 (OVCAR-3) was 16.6 µM and the CC50 (OVCAR-3) was over 100 µM. For the same molecule, the GI50 (DU-145) was 36.3 µM, the CC50 (DU-145) was over 100 µM and the IC50 [2] was 33.6 µM. The GI50 (SK-MEL-5) was 19.6 µM, the CC50 (SK-MEL-5) was over 100 µM and the GI50 (U251) was 36.1 µM. It also gave a CC50 (U251) of over 100 µM, a GI50 (SF-295) of 17.6 µM and a CC50 (SF-295) of over 100 µM. For the same molecule, the GI50 (MDA-MB-435) was 5.3 µM, the GI50 (NCI-H522) was 14.8 µM and the CC50 (NCI-H522) was over 100 µM. The GI50 (KM12; read-out: GI50 KM12) was 4.39 µM, the CC50 (KM12) was over 100 µM and the IC50 (Colon Cancer cell lines) was 7.54 µM. The IC50 (Leukemia cell lines) was 5.05 µM, the “Growth percentage, Non-small cell Lung cancer cell NCI-H460” value [3] was 8* % and the IC50 [4] was 38.1 µM. It also gave an IC50 (CNS Cancer cell lines) of 32.2 µM, a GI50 (CAKI-1) of 21.6 µM and a CC50 (CAKI-1) of over 100 µM. It also gave a GI50 (SR) of 4.3 µM, a CC50 (SR) of over 100 µM and a GI50 (SN12C) of 22.6 µM.
`N#Cc1ccccc1C#CC=CC#Cc1ccccc1N` [Compound 32, 2-[6-(o-anilinyl)-3-hexen-1,5-diynyl]benzonitrile] showed an IC50 (Breast Cancer cell lines) of 2 µM, a GI50 (NCI-H23) of 0.8 µM and a GI50 (IGROV1) of 0.27 µM. The CC50 (IGROV1) was over 100 µM, the IC50 (Melanoma cell lines) was 0.77 µM and the GI50 (K-562) was 0.48 µM. The CC50 (K-562) was over 100 µM, the IC50 (Renal Cancer cell lines) was 0.66 µM and the IC50 [1] was 1.7 µM. The GI50 (NCI/ADR-RES) was 0.37 µM, the CC50 (NCI/ADR-RES) was over 100 µM and the “Growth percentage, Breast cancer cell MCF-7” value (Breast cancer cell MCF-7) was 36%. For the same molecule, the GI50 (SW-620) was 0.39 µM, the CC50 (SW-620) was over 100 µM and the GI50 (PC-3) was 2.78 µM. For the same molecule, the “Growth percentage, CNS cancer cell SF-268” value (CNS cancer cell SF-268) was 27* %, the GI50 (OVCAR-3) was 0.17 µM and the CC50 (OVCAR-3) was 98.4 µM. It also gave a GI50 (DU-145) of 3.48 µM, a CC50 (DU-145) of over 100 µM and an IC50 [2] of 3.13 µM. For the same molecule, the GI50 (SK-MEL-5) was 0.44 µM, the CC50 (SK-MEL-5) was 33.1 µM and the GI50 (U251) was 0.43 µM. The CC50 (U251) was over 100 µM, the GI50 (SF-295) was 0.24 µM and the CC50 (SF-295) was 12.4 µM. The GI50 (MDA-MB-435) was 0.11 µM, the GI50 (NCI-H522) was 0.3 µM and the CC50 (NCI-H522) was 8.62 µM. For the same molecule, the CC50 (KM12) was over 100 µM, the IC50 (Colon Cancer cell lines) was 0.47 µM and the IC50 (Leukemia cell lines) was 0.43 µM. For the same molecule, the “Growth percentage, Non-small cell Lung cancer cell NCI-H460” value [3] was 8* %, the IC50 [4] was 1.55 µM and the IC50 (CNS Cancer cell lines) was 9.44 µM. It also gave a GI50 (CAKI-1) of 0.13 µM, a CC50 (CAKI-1) of 35.9 µM and a GI50 (SR) of 0.25 µM. The CC50 (SR) was over 100 µM, the GI50 (SN12C) was 0.41 µM and the GI50 (UACC-82) was 0.37 µM.
